{"source": "patent US10478501B2", "about": "“Method of treating disorders using a pharmaceutical composition of oligopeptides” (Merck Patent GmbH, priority 2011, dated 2019)", "assay": "Water Vapour Sorption (dynamic vapour experiments)", "format": "physicochemical", "details": "25° C., up to 98% relative humidity, acc. to Ph. Eur. criteria", "description": "Preferably, the anhydrates as described herein and especially the crystalline form A1 can be characterised, alternatively or additionally, by dynamic vapour experiments. The results can be obtained by standard techniques as described in Rolf Hilfiker, ‘Polymorphism in the Pharmaceutical Industry’, Wiley-VCH. Weinheim 2006 (Chapter 9: Water Vapour Sorption, and references therein). […] Eur. criteria."}
{"smiles": "CC(C)[C@H]1C(=O)N[C@@H](CCCNC(=N)N)C(=O)NCC(=O)N[C@@H](CC(=O)O)C(=O)N[C@H](Cc2ccccc2)C(=O)N1C", "note": "[crystalline form A1, cyclo-(Arg-Gly-Asp-DPhe-NMeVal)]", "values": [{"measurement": "hygroscopicity (Water Vapour Sorption behaviour)", "result": "non-hygroscopic"}]}
